Source: article PMC9554870, “Mesoporous Silica Nanoparticles Improve Oral Delivery of Antitubercular Bicyclic Nitroimidazoles” (ACS Biomaterials Science & Engineering, 2021)
≈ marks a conversion by molar mass, not a printed value.

Columns and labels:
[1] = in vivo; details: male, CD-1, mouse, po, 20 mg/kg
[2] = test system: M. tuberculosis H37Rv strain; test: M. tuberculosis H37Rv minimum inhibition assay (resazurin reduction microplate assay); format: cell-based; details: Mycobacterium tuberculosis, lowest concentration with >90% inhibition of growth, free compounds predissolved in DMSO, nanoformulations dispersed in assay media, n = 4–6, read-out: MIC90%Inhib H37Rv
[3] = Aqueous (saturated water) solubility by LC-UV; format: physicochemical; details: deionized water, 37 °C, encapsulated samples 10% w/w, n = 3
Method: The solubility of pretomanid and MCC7433 was measured before and after loading into nanoparticles by using Shimadzu LCMS-2020 (Kyoto, Japan) with a variable-wavelength UV–visible detector. Briefly, 0.5 mg of compound equivalent particles (or 5 mg of 10 wt % compound loaded nanoparticles) were dispersed in 750 μL of deionized water. Samples were incubated at 37 °C on a rotator for 24 and 48 h. Samples were then centrifuged at 12 000 rpm for 20 min. The supernatant was collected and centrifuged for another round at 12 000 rpm, 20 min before being analyzed by LC-UV. The mobile phase was 0.05% formic acid in water (solvent A) and 0.05% formic acid in acetonitrile (solvent B). LC-MS condition: column Zorbax Eclipse XDB-Phenyl, 3.0 × 100 mm, 3.5 μm; column temperature: 40 °C; flow: 1 mL/min; injection volume: 5 μL; gradient timetable: 0.00 min, 5% B; 0.50 min, 5% B; 3.00 min, 100% B; 4.2 min, 100% B; 5.00 min, 5% B.

[4] = parameters: method as in PMID 30562958; details: vorinostat encapsulated within pristine and functionalized MCM-41; cited from earlier work

For `O=c1c2nc([N+](=O)[O-])cn2ccn1Cc1ccc(OC(F)(F)F)cc1` [MCC7433], the Tmax [1] was 5.33 h, the half-life [1] was 3.21 h and the MIC90 [2] was 0.25 to 0.5 µg/mL (≈ 0.706 to 1.41 µM). It also gave a solubility at 24 h [3] of 0.33 µg/mL (≈ 0.932 µM).

`NNC(=O)c1ccncc1` [isoniazid] showed an MIC90 [2] of 0.04 µg/mL (≈ 0.292 µM).

For `O=[N+]([O-])c1cn2c(n1)OC[C@@H](OCc1ccc(OC(F)(F)F)cc1)C2` [pretomanid], the MIC90 [2] was 0.25 µg/mL (≈ 0.696 µM) and the solubility at 24 h [3] was 15.5 µg/mL (≈ 43.1 µM).

For `O=C(CCCCCCC(=O)Nc1ccccc1)NO` [vorinostat], the “fold improvement of solubility compared to the free drug” value [4] is given as 2.6–4.3 fold.
